Data reported in patent US20170305922A1, “CARM1 INHIBITORS AND USES THEREOF” (Epizyme, Inc., priority 2014, published 2017).

Experiments:
Human CARM1 (PRMT4) = target: T1, Human CARM1 (PRMT4) (Homo sapiens, UniProt Q86X55); assay: CARM1 enzyme assay on peptide substrates (3H-SAM Flashplate); settings: Biochemical assay; CARM1 0.25 nM, 3H-SAM 30 nM, peptide 250 nM; read-out: Biochem IC50
T1 construct: Flag-CARM1-His was eluted with 200 ug/ml FLAG peptide in buffer A; made in house; host or cells: HEK 293F cells infected with recombinant baculovirus (pFastBacMam)
T1 sequence (Q86X55 1-585 isoform Q86X55-1): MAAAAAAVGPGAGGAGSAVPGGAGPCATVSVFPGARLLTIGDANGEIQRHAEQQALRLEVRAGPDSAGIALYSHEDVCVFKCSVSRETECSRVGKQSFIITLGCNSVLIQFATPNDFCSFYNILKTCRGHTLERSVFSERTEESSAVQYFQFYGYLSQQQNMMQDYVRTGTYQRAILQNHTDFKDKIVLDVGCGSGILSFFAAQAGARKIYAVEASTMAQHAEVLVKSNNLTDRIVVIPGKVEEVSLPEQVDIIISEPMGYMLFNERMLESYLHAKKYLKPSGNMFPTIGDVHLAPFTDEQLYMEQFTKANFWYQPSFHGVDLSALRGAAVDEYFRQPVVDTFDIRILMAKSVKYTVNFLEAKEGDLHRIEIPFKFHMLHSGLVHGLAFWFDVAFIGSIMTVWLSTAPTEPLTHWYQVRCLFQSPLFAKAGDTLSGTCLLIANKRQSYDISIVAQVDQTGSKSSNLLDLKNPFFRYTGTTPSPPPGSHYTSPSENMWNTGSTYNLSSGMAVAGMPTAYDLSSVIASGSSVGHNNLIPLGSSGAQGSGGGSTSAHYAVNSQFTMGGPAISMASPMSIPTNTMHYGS
Excerpt: S-adenosylmethionine (SAM), S-adenosylhomocysteine (SAH), bicine, Tween20, dimethylsulfoxide (DMSO), bovine skin gelatin (BSG), sodium butyrate and Tris(2-carboxyethyl)phosphine hydrochloride solution (TCEP) were purchased from Sigma-Aldrich at the highest level of purity possible. ^3H-SAM was purchase from American Radiolabeled Chemicals with a specific activity of 80 Ci/mmol. 384-well streptavidin Flashplates were purchased from PerkinElmer.
Peptide representative of human histone H3 residues 16-30 was synthesized with an N-terminal linker-affinity tag motif and a C-terminal amide cap by 21st Century Biochemicals. […] The sequence was Biot-Ahx-[…]-amide and contained a monomethylated arginine at position 26 (SEQ ID NO.:1).
The gene sequence encoding isoform1 containing a deletion of amino acids 539-561 was amplified subsequently and subcloned into pFastBacMam (Viva Biotech).
Recombinant baculovirus were generated according to Bac-to-Bac kit instructions (Life Technologies). Protein over-expression was accomplished by infecting exponentially growing HEK 293F cell culture at 1.3×10^6 cell/ml with virus (MOI=10) in the presence of 8 mM sodium butyrate. Infections were carried out at 37° C. for 48 hours, harvested by centrifugation, and stored at −80° C. for purification.
Column was washed with 500 mM NaCl in buffer A and Flag-CARM1-His was eluted with 200 ug/ml FLAG peptide in buffer A. Pooled fractions were dialyzed in 20 mM Tris, 150 mM NaCl, 5% glycerol and 1 mM DTT, pH 7.8.
The assays were all performed in a buffer consisting of 20 mM Bicine (pH=7.6), 1 mM TCEP, 0.005% BSG, and 0.002% Tween 20, prepared on the day of use. Compounds in 100% DMSO (1 ul) were spotted into a polypropylene 384-well V-bottom plates (Greiner) using a Platemate Plus outfitted with a 384-channel head (Thermo Scientific). DMSO (1 ul) was added to Columns 11, 12, 23, 24, rows A-H for the maximum signal control and 1 ul of SAH, a known product and inhibitor of CARM1, was added to columns 11, 12, 23, 24, rows I-P for the minimum signal control. A cocktail (40 ul) containing the CARM1 enzyme was added by Multidrop Combi (Thermo-Fisher). The compounds were allowed to incubate with CARM1 for 30 min at room temperature, then a cocktail (10 ul) containing ^3H-SAM and peptide was added to initiate the reaction (final volume=51 ul). The final concentrations of the components were as follows: CARM1 was 0.25 nM, ^3H-SAM was 30 nM, peptide was 250 nM, SAH in the minimum signal control wells was 1 mM, and the DMSO concentration was 2%. The assays were stopped by the addition of non-radiolabeled SAM (10 ul) to a final concentration of 300 uM, which dilutes the ^3H-SAM to a level where its incorporation into the peptide substrate is no longer detectable. 50 ul of the reaction in the 384-well polypropylene plate was then transferred to a 384-well Flashplate and the biotinylated peptides were allowed to bind to the streptavidin surface for at least 1 hour before being washed once with 0.1% Tween20 in a Biotek ELx405 plate washer. The plates were then read in a PerkinElmer TopCount plate reader to measure the quantity of ^3H-labeled peptide bound to the Flashplate surface, measured as disintegrations per minute (dpm) or alternatively, referred to as counts per minute (cpm).
where dpm=disintegrations per minute, cmpd=signal in assay well, and min and max are the respective minimum and maximum signal controls.
where top and bottom are the normally allowed to float, but may be fixed at 100 or 0 respectively in a 3-parameter fit. The Hill Coefficient normally allowed to float but may also be fixed at 1 in a 3-parameter fit. Y is the % inhibition and X is the compound concentration.

[1] = test system: asymmetric di-methyl PABP1 in RKO cells; assay: RKO methylation assay: In Cell Western (ICW) for asymmetric di-methyl PABP1 (PABP1me2a); settings: Homo sapiens, RKO, 48 h, Cellular-based (PABP1me2a) ICW (In Cell Western) assay
Excerpt: RKO adherent cells were purchased from ATCC (American Type Culture Collection), Manassas, Va., USA. DMEM/Glutamax medium, penicillin-streptomycin, heat inactivated fetal bovine serum, 0.05% trypsin and D-PBS were purchased from Life Technologies, Grand Island, N.Y., USA. Odyssey blocking buffer, 800CW goat anti-rabbit IgG (H+L) antibody, and Licor Odyssey infrared scanner were purchased from Licor Biosciences, Lincoln, Nebr., USA. Asymmetric di-methyl PABP1 antibody was purchased from Cell Signaling Technology, Danvers, Mass., USA. Methanol was purchased from VWR, Franklin, Mass., USA. 10% Tween 20 was purchased from KPL, Inc., Gaithersburg, Md., USA. Paraformaldehyde (PFA) was purchased from EM Sciences. DRAQ5 was purchased from Biostatus Limited, Leicestershire, UK.
RKO adherent cells were maintained in growth medium (DMEM/Glutamax medium supplemented with 10% v/v heat inactivated fetal bovine serum and 100 units/mL penicillin-streptomycin) and cultured at 37° C. under 5% CO2.
Cell treatment, In Cell Western (ICW) for detection of asymmetric di-methyl PABP1 and DNA content: RKO cells were seeded in assay medium at a concentration of 30,000 cells per mL to a poly-D-lysine coated 384 well culture plate (BD Biosciences 356697) with 50 μL per well. Compound (100 nL) from a 96-well source plate was added directly to 384 well cell plate. Plates were incubated at 37° C., 5% CO2 for 48 hours. After two days of incubation, plates were brought to room temperature outside of the incubator for ten minutes and blotted on paper towels to remove cell media. Cells were fixed for 20 minutes at room temperature by adding 50 ul of 8% PFA followed by aspiration of supernatant with the Biotek EL406 plate washer. Cells were then permeabilized by addition of 50 μL of ice cold 100% methanol directly to each well and incubated for 30 min at room temperature. After 30 min, plates were transferred to a Biotek EL406 plate washer and washed 2 times with 100 μL per well of wash buffer (1×PBS). Next 60 μL per well of Odyssey blocking buffer (Odyssey Buffer with 0.1% Tween 20 (v/v)) were added to each plate and incubated 1 hour at room temperature. Blocking buffer was removed and 20 μL per well of primary antibody was added (asymmetric-methyl PABP1) diluted 1:400 in Odyssey buffer with 0.1% Tween 20 (v/v)) and plates were incubated overnight (16 hours) at 4° C. Plates were washed 5 times with 100 μL per well of wash buffer. Next 20 μL per well of secondary antibody was added (1:800 800CW goat anti-rabbit IgG (H+L) antibody, 1:2000 DRAQ5 in Odyssey buffer with 0.1% Tween 20 (v/v)) and incubated for 1 hour at room temperature. The plates were washed 5 times with 100 μL per well wash buffer then 2 times with 100 μL per well of water. Plates were allowed to dry at room temperature then imaged on the Licor Odyssey machine which measures integrated intensity at 700 nm and 800 nm wavelengths. Both 700 and 800 channels were scanned.
First, the ratio for each well was determined by:
Each plate included fourteen control wells of DMSO only treatment (minimum inhibition) as well as fourteen control wells for maximum inhibition treated with 20 μM of a reference compound. The average of the ratio values for each control type was calculated and used to determine the percent […] for each test well in the plate. Reference compound was serially diluted three-fold in DMSO for a total of nine test concentrations, beginning at 20 μM.
Percent inhibition was determined and IC50 curves were generated using triplicate wells per concentration of compound.

SMILES	IC50 (Human CARM1 (PRMT4)) [nM]	IC50 [1] [nM]
CCc1onc(C)c1-c1nc(-c2cc(OC[C@H](O)CNC)ccc2Cl)nc(N2CC3(CCN(C(=O)OC)CC3)C2)c1C [Example 179]	5.1	119
CNC[C@@H](O)COc1ccc(Cl)c(-c2nc(-c3c(C)noc3C)c(C)c(N3Cc4nc(OC)nc(OC)c4C3)n2)c1 [Example 90]	2.2	32
CNC[C@@H](O)COc1ccc(Cl)c(-c2nc(-c3c(C)noc3C)c(C)c(N3Cc4cnn(CC(=O)N(C)C)c4C3)n2)c1 [Example 109]	6.4	2840
CNC[C@@H](O)COc1ccc(Cl)c(-c2nc(-c3c(C)noc3C)c(C)c(N3Cc4ccc(N5CCOCC5)nc4C3)n2)c1 [Example 196]	2	20
CNC[C@@H](O)COc1ccc(Cl)c(-c2nc(-c3c(C)noc3C)c(C)c(N3Cc4cnc(N5CC(F)C5)nc4C3)n2)c1 [Example 145]	2	15
CNC[C@@H](O)COc1ccc(Cl)c(-c2nc(-c3c(C)noc3C)c(C)c(N3Cc4c(n5c(nc4=O)CCC5)C3)n2)c1 [Example 47]	6.3	> 20000
CNC[C@@H](O)COc1ccc(Cl)c(-c2nc(-c3c(C)noc3C)c(C)c(N3Cc4cnc(C5CC5)cc4C3)n2)c1 [Example 36]	2.4	49
CNC[C@@H](O)COc1ccc(Cl)c(-c2nc(-c3c(C)noc3C)c(C)c(N3Cc4ccc(Cl)nc4C3)n2)c1 [Example 39]	2	32
CNC[C@@H](O)COc1ccc(Cl)c(-c2nc(-c3c(C)c(Br)nn3C)c(C)c(N3CC4(CN(CC(F)(F)F)C4)C3)n2)c1 [Example 215]	4.4	23
CNC[C@@H](O)COc1ccc(Cl)c(-c2nc(-c3c(C)noc3C)c(C)c(N3Cc4ncnc(OC)c4C3)n2)c1 [Example 93]	2.3	33
CNC[C@@H](O)COc1ccc(Cl)c(-c2nc(-c3c(C)noc3C)c(C)c(N3CC4(CCN(C(=O)N(C)C)CC4)C3)n2)c1 [Example 33]	7.2	83
CNC[C@@H](O)COc1ccc(Cl)c(-c2nc(-c3c(C)noc3C)c(C)c(N3Cc4cccnc4C3)n2)c1 [Example 262]	2.34	32.6
CNC[C@@H](O)COc1ccc(Cl)c(-c2nc(-c3c(C)noc3C)c(C)c(N3CC4(CC(N(C)C5CC5)C4)C3)n2)c1 [Example 281]	1.04	79.2
CNC[C@@H](O)COc1cccc(-c2nc(-c3c(C)cnn3C)c(C)c(N3Cc4cccnc4C3)n2)c1 [Example 59]	1.8	292

The remaining lines, values ahead:

IC50 (Human CARM1 (PRMT4)) [nM]	IC50 [1] [nM]	SMILES
11.2	822	CNC[C@@H](O)COc1ccc(Cl)c(-c2nc(-c3c(C)noc3C)c(C)c(N3CC4(CC(S(C)(=O)=O)C4)C3)n2)c1 [Example 111]
7.99	125	CNC[C@@H](O)COc1ccc(Cl)c(-c2nc(-c3c(C)noc3C)c(C)c(N3CC4(CCCN(CC(F)(F)F)C4)C3)n2)c1 [Example 301]
5.3	198	CNC[C@@H](O)COc1ccc(Cl)c(-c2nc(-c3c(C)noc3C)c(C)c(N3C[C@H]4CN(C(=O)OC)C[C@H]4C3)n2)c1 [Example 53]
3.9	144	CNC[C@@H](O)COc1ccc(Cl)c(-c2nc(-c3c(C)noc3C)c(C)c(N3CC4(CC=C(F)CC4)C3)n2)c1 [Example 68]
10	84	CNC[C@@H](O)COc1ccc(Cl)c(-c2nc(-c3c(C)noc3C)c(C)c(N3CC4(CN(C(=O)OC)C4)C3)n2)c1 [Example 43]
3.7	115	CNC[C@@H](O)COc1ccc(Cl)c(-c2nc(-c3c(C)noc3C)c(C)c(N3Cc4cn(CC(F)F)nc4C3)n2)c1 [Example 27]
4.7	57	CNC[C@@H](O)COc1ccc(Cl)c(-c2nc(-c3c(C)noc3C)c(C)c(N3CC4(CCC(OCC(F)F)CC4)C3)n2)c1 [Example 172]
7	166	CNC[C@@H](O)COc1ccc(Cl)c(-c2nc(-c3c(C)noc3C)c(C)c(N3C[C@H]4CN(CC(F)F)C[C@H]4C3)n2)c1 [Example 30]
